Results taken from publication PMC10354055, “An optimized Nurr1 agonist provides disease-modifying effects in Parkinson’s disease models” (Nature Communications, 2023).
“And” between values parts separate entries of the source, which are not always exact repeats. Equal entries are not always repeated.

What was measured:
N27-A cells = test: Mitochondrial activity assay, Seahorse XFp, N27-A cells; type: cell-based, rat; parameters: Seahorse time trace (OCR): unit not given here; conditions: for Seahorse time trace (OCR) / Basal respiration / Maximal respiration / ATP turnover: replicates; for Basal respiration: Fig. S1l; for Basal respiration / Maximal respiration / ATP turnover: with MPP+; for Maximal respiration: Fig. S1m; for ATP turnover: Fig. S1n; for OCR changes after FCCP injection: MPP+ co-treatment, individual replicates (Supplementary Figure S1o)
Protocol: Mitochondrial activity was measured using the Seahorse XFp analyzer (Agilent Technologies) according to the manufacturer’s instruction. Briefly, cells were plated onto wells of a XFp cell culture miniplate and incubated in a 37 °C incubator overnight. The assay was performed after cells were equilibrated for 1 h in XF assay medium supplemented with 10 mM D-glucose, 5 mM sodium pyruvate, and 2 mM glutamax in a non-CO2 incubator. Mitochondrial activity was monitored through sequential injections of 1 μM oligomycin, 2 μM carbonyl cyanide-4 (trifluoromethoxy) phenylhydrazone (FCCP) and 0.5 μM rotenone/antimycin A to calculate basal respiration (= baseline oxygen consumption rate (OCR)−rotenone/antimycin A OCR), maximal respiration (= FCCP OCR−rotenone/antimycin A OCR), ATP turnover (= baseline OCR−oligomycin OCR), and OCR changes after FCCP injection (= FCCP OCR−oligomycin OCR). Each plotted value was normalized to total protein quantified using a Bradford protein assay (Bio-Rad) and analyzed using the Seahorse WAVE Desktop software (Agilent Technologies).

MN9D cells = test: Dopaminergic gene expression (TH, DAT, AADC, VMAT2, c-Ret), qRT-PCR, MN9D cells with MPP+; type: cell-based, mouse; conditions: for Relative TH mRNA expression (fold of Cont.): Fig. S5a; for Relative DAT mRNA expression (fold of Cont.): Fig. S5b; for Relative AADC mRNA expression (fold of Cont.): Fig. S5c; for Relative c-Ret mRNA expression (fold of Cont.): Fig. S5e; for Relative VMAT mRNA expression (fold of Cont.): Fig. S5d
Protocol: Total RNA was extracted using the GeneJET RNA Purification Kit (Thermo Fisher Scientific) and 100 ng of RNA was subjected to cDNA synthesis using Invitrogen Superscript cDNA Synthesis Kit (Invitrogen) according to the manufacturer’s protocol. qRT-PCR was performed using a CFX Connect Real-Time System (Bio-Rad) in a 20 μl volume mixture containing 2X SsoAdvanced Universal SYBR Green Supermix (Bio-Rad), 100 ng/μl of forward and reverse primers, and 1 μl of cDNA sample. Gene expression levels were quantified by the 2^∆∆CT method (Ct of target gene—Ct of glyceraldehyde-3-phosphate dehydrogenase (GAPDH). The following primers were used for qRT-PCR: TH forward: 5′-[…]-3′, reverse: 5′-[…]-3′; DAT forward: 5′-[…]-3′, reverse: 5′-[…]-3′; AADC forward: 5′-[…]-3′, reverse: 5′-[…]-3′; VMAT2 forward: 5′-[…]-3′, reverse: 5′-[…]-3′; c-Ret forward: 5′-[…]-3′, reverse: 5′-[…]-3′; TNFα forward: 5′-[…]-3′; reverse: 5′-[…]-3′; GAPDH, forward 5′-[…]-3′, reverse 5′-[…]-3′.

HeLa cells = test: Autophagic flux, Western blot LC3B and p62, HeLa cells; type: cell-based; conditions: for autophagic flux (in words): HeLa; for Relative LC3B-II experession (normalized to β-actin): Supplementary Figure S7f; for Relative p62 experession (normalized to β-actin): Supplementary Figure S7g; for Relative LC3B-II expression (normalized to β-actin): Supplementary Figure S7i; for Relative p62 expression (normalized to β-actin): Supplementary Figure S7j
Protocol: Experiments were confirmed by duplicate measurements of the same sample. Quantification of immunoreactive bands was performed using ImageJ software (NIH, Bethesda, MD, USA) and expressed as a relative ratio against β-actin.
The band intensities were quantified using ImageJ and normalized against β-actin.

CCN1CCN(c2cc(N3CCN(CC)CC3)nc(NCCNc3ccnc4cc(Cl)ccc34)n2)CC1 [4A7C-301, N^1-(4,6-bis(4-ethylpiperazin-1-yl)pyrimidin-2-yl)-N^2-(7-chloroquinolin-4-yl)ethane-1,2-diamine]
Seahorse time trace (OCR) (N27-A cells; Fig. S1j, Nurr1 OE + MPP+, time 54 min): 57.85 and 39.58 and 42.17 and 36.47 | Seahorse time trace (OCR) (N27-A cells; Fig. S1j, Nurr1 OE + MPP+, time 61 min): 7.42 and 11.41 and 5.09 and 5.68 | Seahorse time trace (OCR) (N27-A cells; Fig. S1j, Nurr1 OE + MPP+, time 67 min): 7.08 and 11.69 and 6.18 and 6.3 | Seahorse time trace (OCR) (N27-A cells; Fig. S1j, Nurr1 OE + MPP+, time 74 min): 8.5 and 11.39 and 6.45 and 6.32 | Seahorse time trace (OCR) (N27-A cells; Fig. S1k, Nurr1 KD + MPP+, time 2 min): 9.8 and 10.5 and 12.93 and 13.97 | Basal respiration (N27-A cells; Control cells): 19.37 pmol/min/µg protein and 19.34 pmol/min/µg protein and 12.02 pmol/min/µg protein and 10.67 pmol/min/µg protein | Basal respiration (N27-A cells; Nurr1 KD cells): 6.31 pmol/min/µg protein and 5.78 pmol/min/µg protein and 7.24 pmol/min/µg protein and 8.35 pmol/min/µg protein | Basal respiration (N27-A cells; Nurr1 OE cells): 19.17 pmol/min/µg protein and 26.73 pmol/min/µg protein and 28.79 pmol/min/µg protein and 22.43 pmol/min/µg protein | Maximal respiration (N27-A cells; Control cells): 22.85 pmol/min/µg protein and 28.71 pmol/min/µg protein and 26.31 pmol/min/µg protein and 21.83 pmol/min/µg protein | Maximal respiration (N27-A cells; Nurr1 KD cells): 28.48 pmol/min/µg protein and 29.74 pmol/min/µg protein and 27.18 pmol/min/µg protein and 19.97 pmol/min/µg protein | Maximal respiration (N27-A cells; Nurr1 OE cells): 51.91 pmol/min/µg protein and 33.72 pmol/min/µg protein and 39.72 pmol/min/µg protein and 35.16 pmol/min/µg protein | ATP turnover (N27-A cells; Control cells): 19.25 pmol/min/µg protein and 18 pmol/min/µg protein and 12.75 pmol/min/µg protein and 12.14 pmol/min/µg protein | ATP turnover (N27-A cells; Nurr1 KD cells): 5.27 pmol/min/µg protein and 5.05 pmol/min/µg protein and 6.03 pmol/min/µg protein and 7.23 pmol/min/µg protein | ATP turnover (N27-A cells; Nurr1 OE cells): 17.88 pmol/min/µg protein and 29.57 pmol/min/µg protein and 28.2 pmol/min/µg protein and 20.09 pmol/min/µg protein | OCR changes after FCCP injection (N27-A cells; Nurr1 KD N27-A cells): 27.63 pmol/min/µg protein and 29.1 pmol/min/µg protein and 27.24 pmol/min/µg protein and 20.05 pmol/min/µg protein | OCR changes after FCCP injection (N27-A cells; Nurr1 OE N27-A cells): 50.72 pmol/min/µg protein and 34.26 pmol/min/µg protein and 38.13 pmol/min/µg protein and 33.82 pmol/min/µg protein | Relative TH mRNA expression (fold of Cont.) (MN9D cells; w/ MPP+): 1.331 fold of Cont. and 1.238 fold of Cont. and 1.4297 fold of Cont. | Relative TH mRNA expression (fold of Cont.) (MN9D cells; w/o MPP+): 2.626 fold of Cont. and 3.055 fold of Cont. and 2.8325 fold of Cont. | Relative DAT mRNA expression (fold of Cont.) (MN9D cells; w/ MPP+): 1.51 fold of Cont. and 1.43 fold of Cont. and 1.594 fold of Cont. | Relative DAT mRNA expression (fold of Cont.) (MN9D cells; w/o MPP+): 3.527 fold of Cont. and 3.949 fold of Cont. and 3.732 fold of Cont. | Relative AADC mRNA expression (fold of Cont.) (MN9D cells; w/ MPP+): 1.175 fold of Cont. and 1.144 fold of Cont. and 1.206 fold of Cont. | Relative AADC mRNA expression (fold of Cont.) (MN9D cells; w/o MPP+): 1.767 fold of Cont. and 1.615 fold of Cont. and 1.689 fold of Cont. | Relative c-Ret mRNA expression (fold of Cont.) (MN9D cells; w/ MPP+): 0.9952 fold of Cont. and 1.121 fold of Cont. and 0.8833 fold of Cont. | Relative c-Ret mRNA expression (fold of Cont.) (MN9D cells; w/o MPP+): 1.827 fold of Cont. and 2.268 fold of Cont. and 2.036 fold of Cont. | Relative VMAT mRNA expression (fold of Cont.) (MN9D cells; w/ MPP+): 1.0229 fold of Cont. and 0.9814 fold of Cont. and 1.066 fold of Cont. | Relative VMAT mRNA expression (fold of Cont.) (MN9D cells; w/o MPP+): 2.085 fold of Cont. and 1.956 fold of Cont. and 2.019 fold of Cont. | dopaminergic gene expression (in words) (MN9D cells; MN9D, decreased by MPP+): significantly rescued | concentration for similar effect, times lower than CQ (MN9D cells; dopaminergic gene expression, MN9D and VM primary cells): 20–40 times | autophagic flux (in words) (HeLa cells; 10-times higher concentrations than 1 µM): did not inhibit autophagy | autophagic flux (in words) (HeLa cells; LC3B-II and p62): completed | Relative LC3B-II experession (normalized to β-actin) (HeLa cells; time 0h): 0.384 and 0.423 and 0.339 | Relative LC3B-II experession (normalized to β-actin) (HeLa cells; time 0.5h): 0.455 and 0.539 and 0.396 | Relative LC3B-II experession (normalized to β-actin) (HeLa cells; time 1h): 0.533 and 0.561 and 0.521 | Relative LC3B-II experession (normalized to β-actin) (HeLa cells; time 2h): 0.526 and 0.509 and 0.466 | Relative LC3B-II experession (normalized to β-actin) (HeLa cells; time 4h): 0.415 and 0.449 and 0.331 | Relative p62 experession (normalized to β-actin) (HeLa cells; time 0h): 0.809 and 0.904 and 0.909 | Relative p62 experession (normalized to β-actin) (HeLa cells; time 0.5h): 0.889 and 0.886 and 0.829 | Relative p62 experession (normalized to β-actin) (HeLa cells; time 1h): 0.800 and 0.736 and 0.720 | Relative p62 experession (normalized to β-actin) (HeLa cells; time 2h): 0.670 and 0.672 and 0.687 | Relative p62 experession (normalized to β-actin) (HeLa cells; time 4h): 0.552 and 0.570 | Relative LC3B-II expression (normalized to β-actin) (HeLa cells; Conc. 1 µM): 0.5044 and 0.5121 and 0.5349 | Relative LC3B-II expression (normalized to β-actin) (HeLa cells; Conc. 10 µM): 0.4913 and 0.4289 and 0.4955 | Relative p62 expression (normalized to β-actin) (HeLa cells; Conc. 1 µM): 0.2532 and 0.2036 and 0.1875 | Relative p62 expression (normalized to β-actin) (HeLa cells; Conc. 10 µM): 0.2002 and 0.2111 and 0.1727
